The term Ki denotes a measure of affinity in units of concentration, obtained from inhibition or displacement. A high value points to lower affinity.

Our source for the Ki values is patent US8486931B2, “Substituted oxindole compounds” (Abbott GmbH & Co. KG, priority 2007, dated 2013).

The assay has as its target T1, human vasopressin V1b receptor (Homo sapiens, UniProt P47901).
T1 construct: expressed in transfected cells; host or cells: CHO-K1 (cell line hV1b-3H2_CHO), membrane preparation
T1 sequence (P47901 1-424): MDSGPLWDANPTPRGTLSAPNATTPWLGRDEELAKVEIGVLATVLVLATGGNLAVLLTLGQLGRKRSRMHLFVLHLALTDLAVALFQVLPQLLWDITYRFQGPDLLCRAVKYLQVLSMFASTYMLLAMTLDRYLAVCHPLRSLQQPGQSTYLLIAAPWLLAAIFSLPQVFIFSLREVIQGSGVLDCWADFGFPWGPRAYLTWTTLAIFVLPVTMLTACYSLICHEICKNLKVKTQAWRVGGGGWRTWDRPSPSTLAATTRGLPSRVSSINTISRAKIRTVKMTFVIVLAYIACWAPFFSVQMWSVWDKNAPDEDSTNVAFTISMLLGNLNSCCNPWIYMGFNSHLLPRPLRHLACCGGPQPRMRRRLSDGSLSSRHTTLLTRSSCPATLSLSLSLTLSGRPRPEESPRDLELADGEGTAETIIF
Briefly: Vasopressin V1b receptor binding assay. The note with it: membranes from CHO-K1 cells with stably expressed human V1b receptors, 1.5 nM 3H-AVP displacement; with more than one stereogenic center: the diastereomer with stronger affinity. How it is done:
Such compounds can be investigated in suitable assays which establish the affinity to a receptor, with the affinity constant Ki represening a measure of the potency of the compounds and a smaller value representing a larger potency. The compounds of the invention were tested in the following receptor binding assay for their affinity for the V1 b receptor.
Vasopressin V1 b Receptor Binding Assay:
The test substances were dissolved in a concentration of 10^−2 M in DMSO (dimethyl sulfoxide) and further diluted to 5×10^−4 M to 5×10^−9 M in DMSO. This series of DMSO predilutions was diluted 1:10 with assay buffer. The substance concentration was again diluted 1:5 in the assay mixture (2% DMSO in the mixture).
The membrane pellet was again homogenized and centrifuged as described and then taken up in 50 mM Tris-HCl, pH 7.4, homogenized and stored in aliquots frozen in liquid nitrogen at −190° C.
The incubation buffer was: 50 mM Tris, 10 mM MgCl2, 0.1% BSA, pH 7.4.
The nonspecific binding was determined with 1 μM AVP (Bachem #H1780). All determinations were carried out as triplicate determinations. After incubation (60 minutes at room temperature), the free radioligand was removed by vacuum filtration (Skatron cell harvester 7000) through Whatman GF/B glass fiber filter mats, and the filters were transferred into scintillation vials. The liquid scintillation measurement took place in a Tricarb model 2000 or 2200CA instrument (Packard). Conversion of the measured cpm into dpm was carried out with the aid of a standard quench series.
The binding parameters were calculated by nonlinear regression in SAS.
The above assay was used to measure the affinities of the compounds of the invention for the human vasopressin V1 b receptor and to determine with affinity constants (Ki).
The compound `CCOc1ccc(OC)cc1C1(N2CCN(c3ccncc3)CC2)C(=O)N(S(=O)(=O)c2ccc(Cl)c3cccnc23)c2ccc(C#N)cc21` (racemic) [Example 48, (±)-5-Cyano-1-(5-chloroquinoline-8-sulfonyl)-3-(2-ethoxy-5-methoxyphenyl)-3-(4-pyridin-4-ylpiperazin-1-yl)-2,3-dihydro-1H-indol-2-one] gave a Ki of 10 to 50 nM.

As for `CCOc1cc(F)ccc1C1(N2CCN(c3ccncc3)CC2)C(=O)N(S(=O)(=O)c2ccc(C)cn2)c2ccc(C#N)cc21` (racemic) [Example 49, (±)-5-Cyano-3-(2-ethoxy-4-fluorophenyl)-1-(5-methylpyridine-2-sulfonyl)-3-(4-pyridin-4-ylpiperazin-1-yl)-2,3-dihydro-1H-indol-2-one], the Ki is 10 to 50 nM.

`COc1ccc(OC)c(C2(N3CCN(c4ccncc4)CC3)C(=O)N(S(=O)(=O)c3cccc4c(C)ccnc34)c3ccc(C#N)cc32)c1` (racemic) [Example 50, (±)-5-Cyano-3-(2,5-dimethoxyphenyl)-1-(4-methylquinoline-8-sulfonyl)-3-(4-pyridin-4-yl-piperazin-1-yl)-2,3-dihydro-1H-indol-2-one] registered a Ki of 10 to 50 nM.

The compound `COc1ccc(C)cc1C1(N2CCN(c3ccncc3)CC2)C(=O)N(S(=O)(=O)c2cccc3cccnc23)c2ccc(C#N)cc21` (racemic) [Example 51, (±)-5-Cyano-3-(2-methoxy-5-methylphenyl)-3-(4-pyridin-4-ylpiperazin-1-yl)-1-quinoline-8-sulfonyl)-2,3-dihydro-1H-indol-2-one] showed a Ki of less than 10 nM.

On to `CCOc1ccc(OC)cc1C1(N2CCN(c3ccnc(C)c3)CC2)C(=O)N(S(=O)(=O)c2ccc(C)cn2)c2ccc(C#N)cc21` (racemic) [Example 52, (±)-5-Cyano-3-(2-ethoxy-5-methoxyphenyl)-1-(5-methylpyridine-2-sulfonyl)-3-[4-(2-methylpyridin-4-yl)piperazin-1-yl]-2,3-dihydro-1H-indol-2-one], for which the Ki lay within 10 to 50 nM.

Take `CCOc1ccc(OC)cc1C1(N2CCN(c3ccnc(C)c3)CC2)C(=O)N(S(=O)(=O)c2ccc(Cl)c3cccnc23)c2ccc(C#N)cc21` (racemic) [Example 53, (±)-5-Cyano-1-(5-chloroquinoline-8-sulfonyl)-3-(2-ethoxy-5-methoxyphenyl)-3-[4-(2-methylpyridin-4-yl)piperazin-1-yl]-2,3-dihydro-1H-indol-2-one]: the Ki is 10 to 50 nM.

In turn, `CCOc1ccc(OC)cc1C1(N2CCN(c3ccnc(C)c3)CC2)C(=O)N(S(=O)(=O)c2cccc3cccnc23)c2ccc(C#N)cc21` (racemic) [Example 54, (±)-5-Cyano-3-(2-ethoxy-5-methoxyphenyl)-3-[4-(2-methylpyridin-4-yl)piperazin-1-yl]-1-(quinoline-8-sulfonyl)-2,3-dihydro-1H-indol-2-one] yielded an inhibition constant (Ki) of less than 10 nM.

In turn, `CCOc1ccccc1C1(N2CCN(c3ccnc(CC)c3)CC2)C(=O)N(S(=O)(=O)c2cccc3cccnc23)c2ccc(C#N)cc21` (racemic) [Example 56, (±)-5-Cyano-3-(2-ethoxyphenyl)-3-[4-(2-ethylpyridin-4-yl)piperazin-1-yl]-1-(quinoline-8-sulfonyl)-2,3-dihydro-1H-indol-2-one] came in with an inhibition constant (Ki) of 10 to 50 nM.

For the compound `CCOc1ccc(OC)cc1C1(N2CCN(c3ccnc(C(C)C)c3)CC2)C(=O)N(S(=O)(=O)c2cccc3cccnc23)c2ccc(C#N)cc21` (racemic) [Example 57, (±)-5-Cyano-3-(2-ethoxy-5-methoxyphenyl)-3-[4-(2-isopropylpyridin-4-yl)piperazin-1-yl]-1-(quinoline-8-sulfonyl)-2,3-dihydro-1H-indol-2-one], the Ki is less than 10 nM.

`COc1ccc(OC)c(C2(N3CCN(c4ccncc4)CC3)C(=O)N(S(=O)(=O)c3cccc4cccnc34)c3ccc(OC)cc32)c1` (racemic) [Example 59, (±)-3-(2,5-Dimethoxyphenyl)-5-methoxy-3-(4-pyridin-4-ylpiperazin-1-yl)-1-(quinoline-8-sulfonyl)-1,3-dihydroindol-2-one] yielded a Ki of less than 10 nM.
